From US20230134843A1, “TREATMENT OF STEM CELL DEFICIENCY” (OSPEDALE SAN RAFFAELE S.R.L., priority 2020, published 2023)
Entries after “also recorded” stand apart in the source; their conditions may differ.

Molecular target: T1, NK1R (Mus musculus, UniProt P30548)
T1 construct: NK1R is expressed by both corneal epithelial and stem cell-like cells; from tissue; host or cells: cornea / ocular surface of live C57BL6/N mice (topical dosing in vivo)
Test: Corneal opacity grading score, stem cell deficiency model (Example 2)
Type: in vivo, mice
From the text: Eight-week-old male mice C57BL6/N (Charles River, Calco, Italy) (WT mice, n=18) and Tac1-deficient B6.Cg-Tac1tm1Bbm/J (Jackson Laboratories, Bar Harbor, Me., USA) (TAC1-KO mice, n=18) were used in all experiments. TAC1-KO mice are homozygous null for the Tac1 gene. […] The corneal thickness and transparency as well as the corneal nerve length are similar to C57BL/6 mice [Barbariga M, Rabiolo A, Fonteyne P, Bignami F, Rama P, Ferrari G. The effect of aging on nerve morphology and substance P expression in mouse and human corneas. Investig Ophthalmol Vis Sci 2018; 59:5329-35. https://doi.org/10.1167/iovs.18-24707.]. […]
Every day after disepithelization, in vivo corneal photographs were taken using a digital camera (EOS 30D; Canon, Tokyo, Japan) attached to a slit-lamp microscope (Photoslitmap 40 SL-P; Zeiss, Oberkochen, Germany) to assess corneal condition. Corneal opacity was evaluated using a grading score (from 0-4; 0=completely clear, 4=completely opaque) previously described [Yoeruek E, Deuter C, Gieselmann S, Saygili O, Spitzer M S, Tatar O, et al. Long-term visual acuity and its predictors after cataract surgery in patients with uveitis. […] The percentage of green fluorescent area on the total corneal area was evaluated by analyzing images by Image J software (National Institutes of Health, Bethesda, Md., USA).

T1 sequence (P30548 whole entry): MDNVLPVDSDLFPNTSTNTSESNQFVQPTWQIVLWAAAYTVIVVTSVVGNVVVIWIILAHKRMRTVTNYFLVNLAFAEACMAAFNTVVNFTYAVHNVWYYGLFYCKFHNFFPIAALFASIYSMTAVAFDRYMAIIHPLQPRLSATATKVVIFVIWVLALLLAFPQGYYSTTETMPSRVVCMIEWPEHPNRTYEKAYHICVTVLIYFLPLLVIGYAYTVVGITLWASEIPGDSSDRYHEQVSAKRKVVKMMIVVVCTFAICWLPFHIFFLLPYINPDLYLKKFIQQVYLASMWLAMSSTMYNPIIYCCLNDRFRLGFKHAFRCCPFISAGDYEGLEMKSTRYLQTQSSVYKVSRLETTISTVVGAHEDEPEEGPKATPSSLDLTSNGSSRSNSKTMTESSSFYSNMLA

C[C@@H](O[C@H]1OCCN(Cc2nc(=O)n(P(=O)(O)O)[nH]2)[C@H]1c1ccc(F)cc1)c1cc(C(F)(F)F)cc(C(F)(F)F)c1 [Fosaprepitant, [3-{[(2R,3S)-2-[(1R)-1-[3,5-bis(trifluoromethyl)phenyl]ethoxy]-3-(4-fluorophenyl)morpholin-4-yl]methyl}-5-oxo-2H-1,2,4-triazol-1-yl]phosphonic acid]
corneal opacity compared to WT (Fosaprepitant 0.1 mg/mL (FOSA 0.1) topically 4 times/day for 16 days): did not show any improvement; also recorded: no improvement
corneal transparency compared to WT (Fosaprepitant 1 mg/mL (FOSA 1) topically 4 times/day for 16 days, p<0.05): significant improvement; also recorded: better corneal transparency
